Measured values from US11208412B2 (DAEGU-GYEONGBUK MEDICAL INNOVATION FOUNDATION, priority 2017, dated 2021).
Residue numbers refer to the chain shown, from its start.

Assays:
Assay in all cases: Kinase selectivity, DiscoverX scanMAX Kinase assay panel (% control)
Format in all cases: binding
[1] = molecular target: T1, kinases of the scanMAX Kinase assay panel (Homo sapiens, UniProt P36507); settings: MEK2; 1 uM
T1 construct: purchased DiscoverX Co. (contract measurement) scanMAX Kinase assay panel
Procedure, shortened: (§1)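 Single-point screen, 1 uM cpd in DMSO. % ctrl = (cpd − pos ctrl)/(neg ctrl − pos ctrl)×100; pos ctrl = 0%, DMSO neg ctrl = 100%. Hit cutoff <35%.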

[2] = molecular target: T2, kinases of the scanMAX Kinase assay panel (Homo sapiens, UniProt P36888, D835H); settings: FLT3(D835H); 1 uM
T2 construct: purchased DiscoverX Co. (contract measurement) scanMAX Kinase assay panel
T2 sequence (P36888 27-993 D835H): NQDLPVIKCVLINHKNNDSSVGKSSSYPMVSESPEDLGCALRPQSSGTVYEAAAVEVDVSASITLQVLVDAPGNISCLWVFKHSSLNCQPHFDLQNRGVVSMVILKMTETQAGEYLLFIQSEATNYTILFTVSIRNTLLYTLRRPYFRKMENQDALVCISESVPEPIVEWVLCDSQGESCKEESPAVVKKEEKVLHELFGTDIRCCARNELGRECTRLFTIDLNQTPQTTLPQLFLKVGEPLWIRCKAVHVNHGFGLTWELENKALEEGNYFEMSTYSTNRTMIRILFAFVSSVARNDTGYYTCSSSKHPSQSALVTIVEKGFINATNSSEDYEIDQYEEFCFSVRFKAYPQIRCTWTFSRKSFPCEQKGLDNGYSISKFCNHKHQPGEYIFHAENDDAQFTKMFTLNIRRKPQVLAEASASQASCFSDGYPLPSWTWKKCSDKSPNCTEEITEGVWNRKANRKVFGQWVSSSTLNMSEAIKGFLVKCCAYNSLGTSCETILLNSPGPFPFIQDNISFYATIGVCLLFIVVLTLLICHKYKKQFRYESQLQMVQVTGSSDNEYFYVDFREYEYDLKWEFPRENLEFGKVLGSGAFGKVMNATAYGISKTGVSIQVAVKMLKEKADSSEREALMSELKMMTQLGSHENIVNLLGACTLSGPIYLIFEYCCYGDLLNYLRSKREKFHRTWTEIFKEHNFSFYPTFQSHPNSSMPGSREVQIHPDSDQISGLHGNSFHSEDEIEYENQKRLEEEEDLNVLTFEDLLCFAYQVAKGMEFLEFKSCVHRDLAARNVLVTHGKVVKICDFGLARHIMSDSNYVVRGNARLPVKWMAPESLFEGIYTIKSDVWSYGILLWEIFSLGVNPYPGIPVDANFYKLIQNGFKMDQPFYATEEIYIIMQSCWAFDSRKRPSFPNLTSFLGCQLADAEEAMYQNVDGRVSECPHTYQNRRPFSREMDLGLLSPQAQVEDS
Procedure, shortened: as §1

[3] = molecular target: T3, kinases of the scanMAX Kinase assay panel (Homo sapiens, UniProt P07949, V804L); settings: kinase RET(V804L); 1 uM in DMSO
T3 construct: purchased DiscoverX Co. (contract measurement) scanMAX Kinase assay panel
Procedure, shortened: as §1

[4] = molecular target: T4, kinases of the scanMAX Kinase assay panel (Homo sapiens, UniProt Q6PHR2); settings: kinase ULK3; 1 uM in DMSO
T4 construct: purchased DiscoverX Co. (contract measurement) scanMAX Kinase assay panel
T4 sequence (Q6PHR2 1-472): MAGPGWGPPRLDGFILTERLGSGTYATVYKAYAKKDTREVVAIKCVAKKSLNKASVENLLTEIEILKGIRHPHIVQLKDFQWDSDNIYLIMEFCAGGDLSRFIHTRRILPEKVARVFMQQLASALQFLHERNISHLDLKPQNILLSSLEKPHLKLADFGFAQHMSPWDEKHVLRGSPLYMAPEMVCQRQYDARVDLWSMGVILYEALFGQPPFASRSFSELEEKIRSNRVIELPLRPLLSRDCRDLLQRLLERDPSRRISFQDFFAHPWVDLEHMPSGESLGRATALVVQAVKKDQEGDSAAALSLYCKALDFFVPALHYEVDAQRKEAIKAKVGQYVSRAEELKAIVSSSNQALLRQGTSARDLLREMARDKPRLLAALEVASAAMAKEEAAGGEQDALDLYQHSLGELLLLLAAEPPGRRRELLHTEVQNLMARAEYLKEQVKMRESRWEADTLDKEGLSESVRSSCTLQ
Procedure, shortened: as §1

[5] = molecular target: T5, kinases of the scanMAX Kinase assay panel (Homo sapiens, UniProt P36888, K663Q); settings: FLT3(K663Q); 1 uM
T5 construct: purchased DiscoverX Co. (contract measurement) scanMAX Kinase assay panel
T5 sequence (P36888 27-993 K663Q): T2 sequence (P36888 27-993 D835H) with K637Q, H809D
Procedure, shortened: as §1

T3 sequence (P07949 29-1114 V804L): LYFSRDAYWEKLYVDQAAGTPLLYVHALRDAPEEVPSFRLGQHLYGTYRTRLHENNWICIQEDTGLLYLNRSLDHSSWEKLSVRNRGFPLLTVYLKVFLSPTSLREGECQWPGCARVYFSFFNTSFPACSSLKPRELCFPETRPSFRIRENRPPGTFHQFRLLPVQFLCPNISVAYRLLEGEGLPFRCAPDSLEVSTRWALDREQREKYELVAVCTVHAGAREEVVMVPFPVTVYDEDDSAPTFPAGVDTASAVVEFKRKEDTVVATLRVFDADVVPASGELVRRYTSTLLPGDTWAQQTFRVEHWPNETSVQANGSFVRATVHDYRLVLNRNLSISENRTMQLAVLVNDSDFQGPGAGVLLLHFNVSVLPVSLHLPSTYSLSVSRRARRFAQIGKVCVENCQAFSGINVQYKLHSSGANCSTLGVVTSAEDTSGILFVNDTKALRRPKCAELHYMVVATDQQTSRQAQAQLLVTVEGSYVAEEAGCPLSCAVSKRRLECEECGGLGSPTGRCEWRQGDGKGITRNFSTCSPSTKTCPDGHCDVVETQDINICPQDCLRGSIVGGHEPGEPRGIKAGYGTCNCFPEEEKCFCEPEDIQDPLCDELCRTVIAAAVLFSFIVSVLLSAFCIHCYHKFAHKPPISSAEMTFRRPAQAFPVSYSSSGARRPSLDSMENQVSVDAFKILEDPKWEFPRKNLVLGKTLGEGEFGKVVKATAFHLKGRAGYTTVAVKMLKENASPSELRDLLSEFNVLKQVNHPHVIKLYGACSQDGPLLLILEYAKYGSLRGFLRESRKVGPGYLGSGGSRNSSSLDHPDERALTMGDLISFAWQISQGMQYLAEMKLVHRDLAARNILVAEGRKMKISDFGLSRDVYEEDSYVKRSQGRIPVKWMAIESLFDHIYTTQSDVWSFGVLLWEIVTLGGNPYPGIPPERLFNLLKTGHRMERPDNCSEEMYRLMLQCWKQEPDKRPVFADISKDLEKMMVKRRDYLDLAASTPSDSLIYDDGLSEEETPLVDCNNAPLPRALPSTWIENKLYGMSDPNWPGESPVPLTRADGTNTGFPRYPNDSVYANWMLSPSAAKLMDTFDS
T1 sequence (P36507 whole entry): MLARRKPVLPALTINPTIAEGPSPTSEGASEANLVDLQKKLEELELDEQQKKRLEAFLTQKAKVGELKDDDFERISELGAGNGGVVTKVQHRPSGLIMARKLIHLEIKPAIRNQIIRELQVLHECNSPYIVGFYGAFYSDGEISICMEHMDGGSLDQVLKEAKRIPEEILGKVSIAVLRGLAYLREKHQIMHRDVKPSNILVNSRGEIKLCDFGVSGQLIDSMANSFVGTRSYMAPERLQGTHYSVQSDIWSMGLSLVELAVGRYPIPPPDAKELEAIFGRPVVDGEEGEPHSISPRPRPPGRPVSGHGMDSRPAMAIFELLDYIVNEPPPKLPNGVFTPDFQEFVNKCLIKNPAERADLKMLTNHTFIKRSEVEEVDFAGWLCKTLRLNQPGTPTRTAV

SMILES	remaining binding at 1 µM [1] [%]	remaining binding at 1 µM [2] [%]	remaining binding at 1 µM [3] [%]	remaining binding at 1 µM [4] [%]	remaining binding at 1 µM [5] [%]
CCNc1nc(Nc2ccc(C(=O)N3CCC(N4CCOCC4)CC3)cc2OC)nc2[nH]cc(C(F)(F)F)c12 [Example 104, (4-((4-(ethylamino)-5-(trifluoromethyl)-7H-pyrrolo[2,3-d]pyrimidine-2-yl)amino)-3-methoxyphenyl)(4-morpholinopiperidine-1-yl)methanone]	83	21	89	100	64
CC1(Nc2nc(Nc3cnn([C@H]4CCN(C5COC5)C[C@@H]4F)c3Cl)nc3[nH]cc(C#N)c23)CC1 [Example 52, 2-((5-chloro-1-((3S,4S)-3-fluoro-1-(oxetane-3-yl)piperidine-4-yl)-1H-pyrazole-4-yl)amino)((1-methylcyclopropyl)amino)-7H-pyrrolo[2,3-d]pyrimidine-5-carbonitrile]	0.3	0.1	0	0.2	0.1
CNc1nc(Nc2ccc(C(=O)N3CCOCC3)cc2OC)nc2[nH]cc(C#N)c12 [Example 1, 2-((2-methoxy-4-(morpholine-4-carbonyl)phenyl)amino)-4-(methylamino)-7H-pyrrolo[2,3-d]pyrimidine-5-carbonitrile]	93	92	79	62	92
